Series [1] can be described thus: Water solubility. The format is physicochemical. From the text:
(§1) It is known that bis-(2-chloroethyl)-1-nitrosourea (hereinafter also referred to as BCNU) can be used in the treatment of various types of cancer. BCNU is lipophilic but it has a low solubility in water, so that additional solvents such as ethanol must be used in application. […] There has therefore been a search for alternatives to BCNU.

The test system of series [2] is tumors of the head and neck. In words: In-vitro experiments on tumors of the head and neck. The format is cell-based.
The test system of series [3] is pancreas lines. In words: In-vitro experiments with various pancreas lines. In kind it is cell-based. As for the experimental part: Inhibiting effects in the low μg/mL range were also found in in-vitro experiments conducted with various pancreas lines, an inhibiting effect normally being achieved with an HECNU concentration of less than 10 μg/mL.
Series [4] has as its system human tumor xenograft models. In words: Subcutaneously implanted human tumor xenograft models in the naked mouse. In kind it is in vivo. The following applies: s.c. human xenografts: soft tissue sarcomas, testicular tumors, thymomas, melanomas, mammary carcinomas, lung tumors, Wilms' tumors, renal carcinomas. From the text:
Furthermore, the activity of HECNU has also been investigated in a number of subcutaneously implanted human tumor xenograft models in the naked mouse. […] These included soft tissue sarcomas, testicular tumors, thymomas, melanomas, mammary carcinomas, tumors of the lung, Wilms' tumors and renal carcinomas.
For orientation: A xenograft is tissue or cells of one species grown in another, often human tumour cells in immunodeficient mice.

Series [5] has as its system pancreatic carcinoma. In words: Clinical phase II study in patients with pancreatic cancer. Also noted: key to Effect: partial remission (PR); minor response (MR). In kind it is in vivo, human. The source says: • Pancreatic carcinoma • Clinical study: • Phase II: ¼ partial remission (PR) (44 weeks)
+1 minor response (MR) (23 weeks)
A minor response was obtained in another patient.

Series [6] can be described thus: Carcinogenicity. In kind it is in vivo. The following applies: in comparison with BCNU. The source says:
(§2) It is assumed that this is attributable to the fact that when HECNU is used, there cannot be any carbamoyl reactions in the body because no carbamoylating metabolite is formed in its degradation in the body.

Series [7] in a line: Organ toxicity (bone marrow, lungs, kidney). As to conditions: in comparison with BCNU. The format is in vivo.
Description: as §1, §2

For series [8], the target named is T1, glutathione reductase (Homo sapiens, UniProt P00390).
T1 construct: from tissue; host or cells: lungs
T1 sequence (P00390 44-522): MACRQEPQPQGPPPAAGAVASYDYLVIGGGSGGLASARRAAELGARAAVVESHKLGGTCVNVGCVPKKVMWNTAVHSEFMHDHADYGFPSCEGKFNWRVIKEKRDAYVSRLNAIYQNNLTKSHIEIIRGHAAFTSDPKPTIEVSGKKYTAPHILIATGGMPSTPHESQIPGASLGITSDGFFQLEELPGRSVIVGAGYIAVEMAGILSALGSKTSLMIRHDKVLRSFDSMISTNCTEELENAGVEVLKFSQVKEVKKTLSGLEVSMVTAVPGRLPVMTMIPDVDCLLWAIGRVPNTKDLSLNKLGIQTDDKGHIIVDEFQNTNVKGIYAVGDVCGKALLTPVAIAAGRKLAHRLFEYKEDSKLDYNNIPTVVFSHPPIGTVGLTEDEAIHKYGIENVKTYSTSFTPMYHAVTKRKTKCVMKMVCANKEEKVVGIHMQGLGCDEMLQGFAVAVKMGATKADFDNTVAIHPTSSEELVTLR
In words: Inhibition of glutathione reductase in the lungs. The format is biochemical.
Description: as §2

The nature of series [9]: Gastrointestinal toxicity in patients. As to conditions: nausea and vomiting in patients. In kind it is in vivo, human.
Series [10] deals with malignant brain tumors. As to conditions: phase II; cited from earlier work.
For series [11], the system named is gastric carcinomas. The following applies: phase II; cited from earlier work.
Series [12] concerns malignant supratentorial gliomas. The following applies: cited from earlier work.
Series [13] concerns colorectal carcinoma. As to conditions: phase II; cited from earlier work.
[14] abbreviates: single patient with pancreas tumor, dose 100 mg/m^2.

Here are results for one compound from patent publication US20060025484A1 (priority 2003, published 2006).

Values joined by “and” are separate entries in the source; they are usually repeats but may differ in a detail not shown here. Equal values may be shown once.

As for `O=NN(CCCl)C(=O)NCCO` [HECNU, 1-(2-chloroethyl)-1-nitroso-3-(2-hydroxyethyl)urea], in series [1], the Water solubility result was “good water solubility”. Besides, the “Inhibiting effect in vitro” value in [2] is recorded as “an inhibiting effect was also achieved”. Moreover, the “HECNU concentration achieving an inhibiting effect” value in series [3] is reported as “less than 10 μg/mL”. Besides, the “Inhibiting effect on tumor growth” value in series [4] was “good to very good inhibiting effects on tumor growth”. Also, the “Partial remission, share of treated patients” value in [5] (four treated patients with pancreatic cancer) was “¼”. In [5] (setting [14]), the Effect entry was “PR and MR”; the “Time to P (weeks)” value is 44 weeks and 23 weeks. Moreover, the Carcinogenicity entry in [6] was “much weaker carcinogen than BCNU”. For the same compound, the “Bone marrow, pulmonary and renal toxicity” value in [7] was “greatly reduced bone marrow toxicity, pulmonary toxicity and renal toxicity”. Besides, the “Inhibition of glutathione reductase” value in [8] is recorded as “does not inhibit glutathione reductase”. In addition, the Gastrointestinal toxicity result in series [9] is on record as “only a low gastrointestinal toxicity”. Besides, the Antineoplastic activity result in [10] was “significant antineoplastic activity”. For the same compound, the “Partial remission, patients treated” value in series [11] is listed as 31%. Moreover, in [12] (compared with other nitrosoureas), the Toxicity profile entry is given as “more favorable toxicity profile in comparison with other nitrosoureas”. Besides, the Activity result in [12] (phase II, malignant supratentorial gliomas) is “demonstrated its activity”. Besides, the “Activity and response rate” value in series [13] was “only marginal activities and response rates”.
